Like-named read-outs stand apart in the source and are kept apart here.
What was measured:
[1] = target: Farnesyl pyrophosphate synthase (IspA) (Escherichia coli, UniProt P22939); conditions: cited from earlier work; for Km: Ref Ku et al., 2005, Weaver et al., 2015
[2] = target: T1, isopentenyl phosphate kinase (IPK) (Arabidopsis thaliana, UniProt Q8H1F7); assay: IPK kinetics by ATP consumption, PK-LDH coupled NADH assay; type: biochemical; conditions: 10 mM ATP, 30° C., pH 7.4
T1 construct: Arabidopsis thaliana (AAN12957.1), codon optimized; made in house; host or cells: E. coli BL21 (DE3)
T1 sequence (Q8H1F7 1-332): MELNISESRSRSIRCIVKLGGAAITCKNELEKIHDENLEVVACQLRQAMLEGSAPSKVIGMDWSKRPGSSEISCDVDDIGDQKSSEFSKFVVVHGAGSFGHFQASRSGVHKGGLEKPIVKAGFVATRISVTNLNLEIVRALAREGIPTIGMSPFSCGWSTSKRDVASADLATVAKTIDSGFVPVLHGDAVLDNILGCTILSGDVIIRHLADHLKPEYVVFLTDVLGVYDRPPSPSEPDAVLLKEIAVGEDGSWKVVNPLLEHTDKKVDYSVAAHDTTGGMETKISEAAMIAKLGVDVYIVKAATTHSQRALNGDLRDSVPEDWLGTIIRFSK
Method: A single colony from each strain containing one plasmid for the expression of a single enzyme was inoculated into 5 mL of sterile LB media (BD Sciences) with kanamycin and grown overnight at 37° C. One milliliter was then inoculated into a 1 L flask containing 200 mL of sterile SOB media (AMERSCO) with kanamycin. The culture was grown at 30° C. until an optical density (OD) of 0.4-0.6 (λ=600 nm). At this point protein production was induced by the addition of IPTG for a final concentration of 0.1 mM and continued at 30° C. for 3 h. Cells were harvested by centrifugation at 3750 rpm in an Allegra X12R centrifuge (Beckman-Coulter). The supernatant was removed and the cell pellets were frozen at −20° C. until purification. Proteins were visualized by SDS-PAGE performed accordingly to the manufacturer's guidelines (Bio-rad). Gradient (4-20%) gels were purchased from Biorad, as were the Kaleidoscope pre-stained protein ladder, Laemmli 4× sample buffer, Tris-glycine-SDS buffer, and mini-protean electrophoresis chambers. Gels were stained using Instant-Blue (Expedeon). Protein concentrations were very roughly estimated from the gel using Image J (NIH) in order to determine an appropriate amount of resin for purification. Protein Purification All purification steps were performed in a single day on ice and in a cold room when possible. Cell pellets were thawed and resuspended in 30 mL of NPI-10 buffer (50 mM NaH2PO4, 300 mM NaCl, 10 mM imidazole, pH 8.0) and supplemented with 0.5 mM PMSF immediately prior to cell lysis. Cells were lysed by 2-3 passages through an EmulsiFlex-C5 high-pressure homogenizer (Avestin). Lysates were then centrifuged at 4 C for 15 min to remove cellular debris. The clarified lysate was loaded onto a Ni-NTA resin (Gold Bio, capacity 50 mg/mL) which was housed in a gravity column (Thermofisher) and was pre-equilibrated with 10 column volumes (CV) of NPI-10 buffer. The column was then washed with 10 CV of NPI-20 buffer (20 mM imidazole). The enzyme was then eluted from the column by 3 CV using NPI-250 buffer (250 mM imidazole). Enzymes were then exchanged into 50 mM Tris-HCl pH 7.5 using 10 kDa Microseps (Millipore) by centrifugation and repeated buffer exchanges until the imidazole was calculated to be under 1 mM. […] Enzyme concentration was determined using a bicinchoninic acid (BCA) assay kit from Pierce using bovine serum albumin as a standard (BSA). […] The kinetics for CK were previously determined as described. The kinetics for IPK were determined by ATP consumption using a pyruvate kinase (PK) lactate dehydrogenase (LDH) coupled assay (FIGS. 16A & 16B). […] NADH was made fresh each time and the appropriate concentration was determined by constructing a standard curve using a SpectraMax M3 and selecting the highest value in the linear range. […]

[3] = system: multi-enzyme system (CK, IPK, IDI, IspA, GGPPS, TDS); assay: Titration of cofactors and potential inhibitors in the taxadiene multi-enzyme system; type: biochemical
Method: The multi-enzyme system reactions were carried out in 50 mM ammonium bicarbonate (pH 7.4) with 10 mM MgCl2, 2 mM MnCl2, 0.05% (w/v) Tween 20, 10 mM ATP, and 5 mM isoprenol at 30° C. unless otherwise stated. The solution in glass GC vials (Agilent) were overlaid with 1/10 volume of dodecane to entrap the volatile isoprenoids. An initial estimated optimal concentration of each enzyme was calculated using the rates determined by individual enzyme assays. The final optimized enzyme concentrations were determined to be 25 μg/mL CK, 15 μg/mL IPK, 25.4 μg/mL IDI, 37.15 μg/mL IspA, 8.15 μg/mL GGPPS, and 25 μg/mL for TDS.
A possible explanation for such inhibitions could be that the enzymes would salt out when a combined amount of >20 mM ATP+ADP (sodium salts) are added to the mixture. […] Since 8 moles of ATP are necessary for the synthesis of 1 mole of taxadiene, salting out of proteins by high concentrations of ATP sodium salt limits that maximum titer of taxadiene that can be achieved using this system making ATP the limiting reagent. […] Furthermore, the consumption of isoprenol in this process could not be determined due to the high variability the utilized GC-FID assay which could not accurately measure such small changes in isoprenol concentration.

[4] = system: Geranylgeranyl pyrophosphate synthase (GGPPS); conditions: reported elsewhere (Hefner et al., 1998); cited from earlier work
[5] = target: T2, choline kinase from Saccharomyces cerevisiae (ScCK) (Saccharomyces cerevisiae, UniProt P20485); conditions: Table 6, Ref Chatzivasileiou et al., 2018; cited from earlier work
T2 construct: S. cerevisiae (AAA34499.1), codon optimized; made in house; host or cells: E. coli BL21 (DE3)
T2 sequence (P20485 1-582): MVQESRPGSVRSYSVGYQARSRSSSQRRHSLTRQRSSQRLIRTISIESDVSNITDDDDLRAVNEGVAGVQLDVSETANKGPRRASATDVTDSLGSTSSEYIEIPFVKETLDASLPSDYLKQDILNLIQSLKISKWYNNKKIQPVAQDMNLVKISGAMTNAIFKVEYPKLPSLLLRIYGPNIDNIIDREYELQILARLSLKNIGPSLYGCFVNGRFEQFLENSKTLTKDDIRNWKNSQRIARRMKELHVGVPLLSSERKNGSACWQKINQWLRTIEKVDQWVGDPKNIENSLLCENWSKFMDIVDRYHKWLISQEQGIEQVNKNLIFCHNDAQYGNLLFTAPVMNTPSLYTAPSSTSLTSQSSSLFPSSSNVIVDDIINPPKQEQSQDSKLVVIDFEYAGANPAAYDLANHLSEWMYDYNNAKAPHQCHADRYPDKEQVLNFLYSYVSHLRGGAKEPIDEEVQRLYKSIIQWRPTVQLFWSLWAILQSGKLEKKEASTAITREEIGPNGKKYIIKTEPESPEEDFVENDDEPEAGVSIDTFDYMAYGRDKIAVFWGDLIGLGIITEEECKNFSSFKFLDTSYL

[6] = substrate: C=C(C)CCO; assay: In vitro kinetic assay of purified choline kinase with isoprenol or prenol (LC-MS/MS); type: biochemical, Saccharomyces cerevisiae; conditions: other: 37° C., fixed ATP concentration, purified ScCK, pH 7.5
Method: (§1) Enzyme assays for screening of isopentenol kinase activity was performed as follows. The purified enzymes were added to the enzyme assay master mix for a final concentration of 2 mM ATP, 10 mM MgCl2, 50 mM NH4HCO3 pH 7.5, and 600 μM isoprenol or prenol. They were incubated overnight at 37° C. The reactions were stopped using 5 volumes of ice-cold acetonitrile and centrifuged to remove precipitated proteins using a plate adaptor at 3273×g for 15 min. The supernatant was transferred to a new microplate and frozen at −80° C. The liquid was removed by a 4.5 L lyophilizer (Labconco) and the samples were resuspended in an equal volume of water and centrifuged again prior to quantification using LC-MS/MS.
(§2) Kinetic enzyme assays were conducted using the standard assay conditions described above with the following changes. First, the linear range of the assay was determined over a 90 min period (FIG. 3). Initial velocity appeared linear over this period. Therefore, kinetic assays were quenched after 30 min. For assays at different temperatures, the standard reaction mixture was used while the temperature was varied using a water bath. […] Afterwards, reactions were performed in the standard reaction mixture with NH4HCO3 buffer was adjusted to the appropriate pH. For Michaelis-Menten kinetics, only the concentration of isoprenol or prenol was varied between 1.5-50 μM.

[7] = substrate: CC(C)=CCO; assay: as above; type: biochemical, Saccharomyces cerevisiae; conditions: other: 37° C., fixed ATP concentration, purified ScCK, pH 7.5
Method: as §1, §2

Farnesyl pyrophosphate synthase (IspA), sequence (P22939 whole entry): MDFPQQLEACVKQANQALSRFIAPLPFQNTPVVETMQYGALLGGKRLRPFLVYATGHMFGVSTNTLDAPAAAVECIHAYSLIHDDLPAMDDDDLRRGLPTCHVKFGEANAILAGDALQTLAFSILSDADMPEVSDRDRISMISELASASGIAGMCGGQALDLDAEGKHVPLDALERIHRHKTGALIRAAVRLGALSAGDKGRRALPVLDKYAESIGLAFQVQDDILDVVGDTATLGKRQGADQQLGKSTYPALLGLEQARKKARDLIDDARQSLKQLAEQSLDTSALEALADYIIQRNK

Molecule: CC(C)=CCC/C(C)=C/COP(=O)(O)OP(=O)(O)O [GPP, geranyl diphosphate]
- Km ([1]; reaction IPP + GPP): 10.3 µM

Molecule: CC(C)=CCOP(=O)(O)O [DMAP, dimethylallyl monophosphate]
- Km [2]: 35.5 µM
- kcat [2]: 53.1 S^−1

Molecule: Nc1ncnc2c1ncn2[C@@H]1O[C@H](COP(=O)(O)OP(=O)(O)OP(=O)(O)O)[C@@H](O)[C@H]1O [ATP, adenosine triphosphate]
- effect on taxadiene production ([3]; 20 mM ATP): completely inhibited
- ATP levels that completely inhibited IspA ([1]; Chen et al. (2017)): above 5 mM

Molecule: CC(C)=CCOP(=O)(O)OP(=O)(O)O [DMAPP, dimethylallyl pyrophosphate]
- Km ([1]; reaction IPP + DMAPP): 1.3 µM

Molecule: CC(C)=CCC/C(C)=C/CC/C(C)=C/COP(=O)(O)OP(=O)(O)O [FPP, farnesyl diphosphate]
- Km [4]: 7 µM

Molecule: C=C(C)CCO [Isoprenol, 3-methyl-3-buten-1-ol]
- Km [5]: 4540 µM
- kcat [5]: 14.7 S^−1

Molecule: CC(C)=CCO [Prenol, 3-methyl-2-buten-1-ol]
- Km [5]: 1110 µM
- kcat [5]: 1.13 S^−1

Molecule: Nc1ncnc2c1ncn2[C@@H]1O[C@H](COP(=O)(O)OP(=O)(O)O)[C@@H](O)[C@H]1O [ADP, adenosine diphosphate]
- effect on taxadiene production ([3]; ADP 0-20 mM in the presence of 10 mM ATP): Some inhibition

B1: choline kinase from Saccharomyces cerevisiae (ScCK) (Saccharomyces cerevisiae S288C) (protein)
chain: T2 sequence (P20485 1-582)
notes: S. cerevisiae (AAA34499.1), codon optimized; made in house; host or cells: E. coli BL21 (DE3)
- Km [6]: 4539 µM
- kcat [6]: 14.7 s⁻¹
- Km [7]: 1113 µM
- kcat [7]: 1.1 s⁻¹
